Data set [1] can be described thus: Oral bioavailability in rat at 10 mg/kg measured for 0.083 to 24 hrs by LC-MS/MS analysis. Format: ADME, organism-based. The settings on record: in vivo.
Data set [2] deals with Insulin-like growth factor 1 receptor (Homo sapiens) (UniProt P08069). The data set can be described thus: Inhibition of IGF1R (unknown origin) at 100 nM relative to control.
The target in data set [3] is Proto-oncogene tyrosine-protein kinase Src (Homo sapiens) (UniProt P12931). The data set can be described thus: Inhibition of Src (unknown origin) at 100 nM relative to control.
Data set [4] addresses Fibroblast growth factor receptor 1 (Homo sapiens) (UniProt P11362). The data set is described as follows: Inhibition of FGFR1 (unknown origin) at 100 nM relative to control.
For data set [5], the target named is Tyrosine-protein kinase JAK3 (Homo sapiens) (UniProt P52333). The data set is described as follows: Inhibition of JAK3 (unknown origin) at 100 nM relative to control.
In data set [6] the target is Vascular endothelial growth factor receptor 3 (Homo sapiens) (UniProt P35916). The data set can be described thus: Inhibition of VEGFR3 (unknown origin) at 100 nM relative to control.
The subject of data set [7] is Epidermal growth factor receptor (Homo sapiens), P00533 [L858R,T790M,C797S]. The data set can be described thus: Inhibition of EGFR L858R/T790M/C797S mutant (unknown origin) transfected in mouse BAF3 cells assessed as inhibition of EGF-induced EGFR phosphorylation at 0.1 uM by Western blot analysis. Format: cell-based. In general terms: A western blot detects proteins with antibodies after separation by electrophoresis.

For data set [8], the target named is Receptor tyrosine-protein kinase erbB-2 (Homo sapiens) (UniProt P04626). The data set is described as follows: Inhibition of ErbB2 (unknown origin) at 100 nM relative to control.
Data set [9] has as its target Insulin receptor (Homo sapiens) (UniProt P06213). The data set can be described thus: Inhibition of IR (unknown origin) at 100 nM relative to control.
Data set [10] deals with Receptor-type tyrosine-protein kinase FLT3 (Homo sapiens) (UniProt P36888). The data set is described as follows: Inhibition of FLT3 (unknown origin) at 100 nM relative to control.
Data set [11] deals with Fibroblast growth factor receptor 3 (Homo sapiens) (UniProt P22607). The data set can be described thus: Inhibition of FGFR3 (unknown origin) at 100 nM relative to control.
Data set [12] deals with ALK tyrosine kinase receptor (Homo sapiens) (UniProt Q9UM73). The data set is described as follows: Inhibition of ALK (unknown origin) at 100 nM relative to control.
Data set [13] deals with Tyrosine-protein kinase Blk (Homo sapiens) (UniProt P51451). The data set is described as follows: Inhibition of BLK (unknown origin) at 100 nM relative to control.

These results are taken from ChEMBL document CHEMBL4396901, “Discovery of Potent and Noncovalent Reversible EGFR Kinase Inhibitors of EGFRL858R/T790M/C797S” (ACS Med Chem Lett, 2019).

Each structure is given as a SMILES string. Active and inactive are the calls of the source. The calls are words filed in the database; no cut-off is given here.

Chain of Epidermal growth factor receptor (Homo sapiens), P00533 [L858R,T790M,C797S] (P00533 whole entry T790M/C797S/L858R): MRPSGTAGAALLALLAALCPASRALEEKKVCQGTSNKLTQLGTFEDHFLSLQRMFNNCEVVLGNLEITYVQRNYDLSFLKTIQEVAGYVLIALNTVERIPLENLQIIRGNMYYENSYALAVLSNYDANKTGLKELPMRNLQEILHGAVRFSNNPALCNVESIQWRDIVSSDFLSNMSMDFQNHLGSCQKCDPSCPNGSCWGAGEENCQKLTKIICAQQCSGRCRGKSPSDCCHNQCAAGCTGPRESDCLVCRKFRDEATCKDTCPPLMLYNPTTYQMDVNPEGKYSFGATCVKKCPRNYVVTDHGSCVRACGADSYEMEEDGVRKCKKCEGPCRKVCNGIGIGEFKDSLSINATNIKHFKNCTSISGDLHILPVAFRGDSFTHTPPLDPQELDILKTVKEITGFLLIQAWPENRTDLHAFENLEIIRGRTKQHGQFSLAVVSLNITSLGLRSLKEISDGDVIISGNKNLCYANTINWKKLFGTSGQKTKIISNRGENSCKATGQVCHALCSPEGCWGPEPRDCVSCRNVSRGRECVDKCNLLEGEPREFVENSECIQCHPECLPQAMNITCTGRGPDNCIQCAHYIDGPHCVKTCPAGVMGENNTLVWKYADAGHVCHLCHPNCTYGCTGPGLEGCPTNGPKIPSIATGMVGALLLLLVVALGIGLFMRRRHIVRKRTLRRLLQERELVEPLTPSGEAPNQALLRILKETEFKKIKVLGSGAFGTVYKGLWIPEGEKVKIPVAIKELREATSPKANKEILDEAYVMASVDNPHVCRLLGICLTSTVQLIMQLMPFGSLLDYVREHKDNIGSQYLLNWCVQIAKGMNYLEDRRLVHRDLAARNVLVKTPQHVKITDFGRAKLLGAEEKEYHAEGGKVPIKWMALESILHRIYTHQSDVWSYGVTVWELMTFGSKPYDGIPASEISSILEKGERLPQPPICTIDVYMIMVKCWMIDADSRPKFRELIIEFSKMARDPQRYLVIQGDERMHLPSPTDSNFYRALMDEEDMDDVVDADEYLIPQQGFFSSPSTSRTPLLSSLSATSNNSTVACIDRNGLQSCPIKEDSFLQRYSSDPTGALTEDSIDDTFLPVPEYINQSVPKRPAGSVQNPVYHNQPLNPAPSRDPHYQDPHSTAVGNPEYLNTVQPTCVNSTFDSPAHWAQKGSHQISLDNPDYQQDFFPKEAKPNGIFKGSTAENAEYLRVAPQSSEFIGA
Chain of Fibroblast growth factor receptor 3 (Homo sapiens) (P22607 23-806 limits assumed): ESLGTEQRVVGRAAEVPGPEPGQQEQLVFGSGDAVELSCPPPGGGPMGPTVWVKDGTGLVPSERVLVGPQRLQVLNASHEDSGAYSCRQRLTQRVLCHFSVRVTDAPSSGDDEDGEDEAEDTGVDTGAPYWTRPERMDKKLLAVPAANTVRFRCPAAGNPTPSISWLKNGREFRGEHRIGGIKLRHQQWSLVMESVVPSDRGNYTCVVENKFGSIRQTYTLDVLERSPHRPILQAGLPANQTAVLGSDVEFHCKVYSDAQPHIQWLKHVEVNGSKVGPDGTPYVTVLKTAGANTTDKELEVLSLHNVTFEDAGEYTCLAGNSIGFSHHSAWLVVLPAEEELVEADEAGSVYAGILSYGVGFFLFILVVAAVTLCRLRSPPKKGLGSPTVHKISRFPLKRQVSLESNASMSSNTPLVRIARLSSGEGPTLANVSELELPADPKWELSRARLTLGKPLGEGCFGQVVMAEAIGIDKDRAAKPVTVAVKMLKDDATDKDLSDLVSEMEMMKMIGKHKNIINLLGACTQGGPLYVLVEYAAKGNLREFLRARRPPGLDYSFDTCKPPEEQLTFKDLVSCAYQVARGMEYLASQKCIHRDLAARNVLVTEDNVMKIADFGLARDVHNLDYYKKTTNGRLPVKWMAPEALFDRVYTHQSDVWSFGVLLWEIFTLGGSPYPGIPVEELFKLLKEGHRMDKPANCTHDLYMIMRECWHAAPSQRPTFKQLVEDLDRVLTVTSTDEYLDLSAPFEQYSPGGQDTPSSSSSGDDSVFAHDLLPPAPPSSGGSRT
Chain of Insulin-like growth factor 1 receptor (Homo sapiens) (P08069 31-736 limits assumed): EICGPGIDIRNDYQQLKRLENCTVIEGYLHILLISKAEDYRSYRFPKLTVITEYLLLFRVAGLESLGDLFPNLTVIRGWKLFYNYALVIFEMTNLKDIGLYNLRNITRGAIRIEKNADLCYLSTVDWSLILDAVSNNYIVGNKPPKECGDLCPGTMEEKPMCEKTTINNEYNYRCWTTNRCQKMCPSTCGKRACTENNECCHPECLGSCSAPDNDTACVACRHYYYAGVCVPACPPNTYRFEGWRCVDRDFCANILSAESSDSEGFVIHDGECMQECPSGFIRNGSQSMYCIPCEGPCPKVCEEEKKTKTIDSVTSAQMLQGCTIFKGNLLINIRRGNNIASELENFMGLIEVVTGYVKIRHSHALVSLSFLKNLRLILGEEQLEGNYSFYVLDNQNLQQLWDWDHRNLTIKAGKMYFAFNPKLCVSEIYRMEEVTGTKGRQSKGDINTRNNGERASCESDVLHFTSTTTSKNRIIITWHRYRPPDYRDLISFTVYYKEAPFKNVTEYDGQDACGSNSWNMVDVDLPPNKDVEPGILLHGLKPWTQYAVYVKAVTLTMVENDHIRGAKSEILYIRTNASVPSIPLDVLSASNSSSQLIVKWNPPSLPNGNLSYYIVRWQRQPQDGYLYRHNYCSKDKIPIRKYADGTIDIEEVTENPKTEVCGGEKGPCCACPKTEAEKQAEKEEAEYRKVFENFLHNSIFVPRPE
Chain of Insulin-like growth factor 1 receptor (Homo sapiens) (P08069 741-1367 limits assumed): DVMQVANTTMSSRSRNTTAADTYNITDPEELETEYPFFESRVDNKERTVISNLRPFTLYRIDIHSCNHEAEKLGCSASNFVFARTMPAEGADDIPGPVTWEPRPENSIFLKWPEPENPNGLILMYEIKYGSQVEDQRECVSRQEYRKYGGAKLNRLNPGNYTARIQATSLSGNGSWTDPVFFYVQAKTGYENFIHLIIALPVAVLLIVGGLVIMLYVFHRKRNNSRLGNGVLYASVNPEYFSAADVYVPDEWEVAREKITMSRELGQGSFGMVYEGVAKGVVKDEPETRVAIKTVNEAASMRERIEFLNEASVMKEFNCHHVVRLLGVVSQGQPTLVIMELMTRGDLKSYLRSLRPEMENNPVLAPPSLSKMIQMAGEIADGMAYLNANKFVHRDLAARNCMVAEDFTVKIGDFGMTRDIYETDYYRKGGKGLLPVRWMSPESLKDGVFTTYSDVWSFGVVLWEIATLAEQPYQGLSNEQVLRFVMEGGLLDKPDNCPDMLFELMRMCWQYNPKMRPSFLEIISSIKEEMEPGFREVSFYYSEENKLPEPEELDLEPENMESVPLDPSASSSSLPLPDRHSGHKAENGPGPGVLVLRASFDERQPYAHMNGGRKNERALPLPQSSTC
Chain of Proto-oncogene tyrosine-protein kinase Src (Homo sapiens) (P12931 2-536 limits assumed): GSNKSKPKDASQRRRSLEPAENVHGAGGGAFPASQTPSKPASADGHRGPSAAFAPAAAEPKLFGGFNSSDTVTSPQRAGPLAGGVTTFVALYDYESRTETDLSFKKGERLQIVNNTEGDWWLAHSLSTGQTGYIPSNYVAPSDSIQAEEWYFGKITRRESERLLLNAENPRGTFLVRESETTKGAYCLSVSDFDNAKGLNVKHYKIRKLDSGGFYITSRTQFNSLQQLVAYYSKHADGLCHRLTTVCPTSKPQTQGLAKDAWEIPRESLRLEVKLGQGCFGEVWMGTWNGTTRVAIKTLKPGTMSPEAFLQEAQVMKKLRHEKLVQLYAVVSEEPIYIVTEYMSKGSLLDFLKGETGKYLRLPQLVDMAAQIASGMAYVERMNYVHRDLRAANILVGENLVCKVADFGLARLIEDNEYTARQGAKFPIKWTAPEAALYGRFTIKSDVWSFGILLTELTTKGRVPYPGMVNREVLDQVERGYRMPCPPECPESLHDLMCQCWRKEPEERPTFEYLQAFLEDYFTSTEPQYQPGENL
Chain of Tyrosine-protein kinase JAK3 (Homo sapiens) (P52333 whole entry): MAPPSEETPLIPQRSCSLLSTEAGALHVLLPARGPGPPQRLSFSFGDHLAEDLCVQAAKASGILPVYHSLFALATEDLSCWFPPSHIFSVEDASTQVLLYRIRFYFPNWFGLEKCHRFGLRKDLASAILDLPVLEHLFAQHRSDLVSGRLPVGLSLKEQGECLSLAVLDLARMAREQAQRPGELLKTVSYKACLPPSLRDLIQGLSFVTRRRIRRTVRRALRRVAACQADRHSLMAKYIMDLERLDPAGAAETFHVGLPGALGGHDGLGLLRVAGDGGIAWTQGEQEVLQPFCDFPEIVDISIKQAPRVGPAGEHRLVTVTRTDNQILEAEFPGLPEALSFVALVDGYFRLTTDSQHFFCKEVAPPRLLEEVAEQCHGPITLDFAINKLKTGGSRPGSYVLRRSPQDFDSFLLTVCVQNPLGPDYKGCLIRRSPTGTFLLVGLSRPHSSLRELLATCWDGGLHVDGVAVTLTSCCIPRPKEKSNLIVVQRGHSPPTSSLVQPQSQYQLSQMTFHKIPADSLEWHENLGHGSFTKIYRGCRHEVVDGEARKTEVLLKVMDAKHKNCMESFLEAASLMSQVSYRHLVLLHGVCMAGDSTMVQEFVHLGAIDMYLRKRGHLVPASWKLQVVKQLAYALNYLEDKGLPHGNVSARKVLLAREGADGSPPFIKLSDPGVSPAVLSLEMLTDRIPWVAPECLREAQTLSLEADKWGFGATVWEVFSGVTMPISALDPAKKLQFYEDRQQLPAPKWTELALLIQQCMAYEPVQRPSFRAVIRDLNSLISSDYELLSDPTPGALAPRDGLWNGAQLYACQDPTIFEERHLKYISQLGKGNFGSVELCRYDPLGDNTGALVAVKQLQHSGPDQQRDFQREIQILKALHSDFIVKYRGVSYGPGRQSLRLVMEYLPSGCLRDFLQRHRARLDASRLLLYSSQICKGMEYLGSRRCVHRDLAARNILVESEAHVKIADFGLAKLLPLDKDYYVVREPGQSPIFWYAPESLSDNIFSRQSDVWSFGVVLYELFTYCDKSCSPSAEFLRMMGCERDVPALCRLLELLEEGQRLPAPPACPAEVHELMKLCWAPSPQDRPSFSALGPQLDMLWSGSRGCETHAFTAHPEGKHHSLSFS

What is called bioavailability is dose-corrected exposure relative to a reference, in per cent. Broadly, the inhibition is the drop in the measured response relative to a control, in per cent. As for `COc1cc2c(Nc3ccc(NC(=O)C(c4cc(F)ccc4F)N4Cc5ccccc5C4=O)cc3F)ncnc2cc1OCC1CCN(C)CC1` (stereo not drawn), the bioavailability in data set [1] was found to be 0.55%. Moreover, the inhibition in data set [2] was < 25%; in data set [3], 50 to 75%; in data set [4], < 25%; in data set [5] it was < 25%; in data set [6], < 25%; in [8], > 90%. For the same molecule, the inhibition is < 25% in data set [9]; < 25% in data set [10]; < 25% in data set [11]; < 25% in data set [12]; > 90% in data set [13]. In data set [7], the inhibition result was “Active”.
